Reference: publication PMC6844382, “Design, synthesis and evaluation of quinolinone derivatives containing dithiocarbamate moiety as multifunctional AChE inhibitors for the treatment of Alzheimer’s disease” (Journal of Enzyme Inhibition and Medicinal Chemistry, 2019)

Experiments:
[1] = in vitro; settings: PAMPA
Description: (§1) Afterwards, the acceptor filter plate was carefully placed on the donor plate to make the coated membrane touch both donor solution and acceptor buffer. […] Pe was calculated by the following expression: Pe = {−VdVa/[(Vd + Va)At]}ln (1-drugacceptor/drugequilibrium), where Vd is the volume of donor well, Va is volume in acceptor well, A is the filter area, t is the permeation time, drugacceptor is the absorbance obtained in the acceptor well and drugequilibrium is the theoretical equilibrium absorbance. Each compound was analysed at five wavelengths in four wells at least three independent runs, and the results were expressed as mean ± SD.

[2] = from PAMPA-BBB Pe
Description: as §1

[3] = molecular target: T1, eeAChE (Electrophorus electricus, UniProt O42275); assay: In vitro inhibition of eeAChE (Ellman method); type: biochemical, electric eel; settings: for inhibition at 10 µM: read-out: eeAChE Inhibition (%), inhibitor at 10 μM
T1 construct: eeAChE (from electric eel); purchased Sigma-Aldrich (St. Louis, MO, USA); host or cells: electric eel
T1 sequence (O42275 24-633): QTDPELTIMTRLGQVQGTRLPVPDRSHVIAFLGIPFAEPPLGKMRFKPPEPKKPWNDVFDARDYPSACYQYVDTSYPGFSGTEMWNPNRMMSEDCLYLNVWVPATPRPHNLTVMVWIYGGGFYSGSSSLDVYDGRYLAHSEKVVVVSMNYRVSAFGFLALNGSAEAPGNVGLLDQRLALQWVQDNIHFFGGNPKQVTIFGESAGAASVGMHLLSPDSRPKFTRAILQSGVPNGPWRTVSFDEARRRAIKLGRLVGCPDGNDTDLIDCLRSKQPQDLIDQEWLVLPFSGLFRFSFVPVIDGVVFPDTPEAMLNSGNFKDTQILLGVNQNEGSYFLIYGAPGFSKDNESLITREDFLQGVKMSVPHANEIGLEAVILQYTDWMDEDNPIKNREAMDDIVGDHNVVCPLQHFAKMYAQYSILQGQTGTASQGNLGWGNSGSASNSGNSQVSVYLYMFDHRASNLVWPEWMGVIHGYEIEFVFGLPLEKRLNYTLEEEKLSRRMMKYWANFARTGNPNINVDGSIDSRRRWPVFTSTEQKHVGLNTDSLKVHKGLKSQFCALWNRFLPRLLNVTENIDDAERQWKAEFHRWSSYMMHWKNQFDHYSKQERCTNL
Description: (§2) The in vitro inhibitory activities of test compounds against AChE and BuChE were determined by the spectrophotometric method of Ellman[25]. […] For each assay, 160 μL of 1.5 mM DTNB, 50 μL of AChE (0.22 U/mL for eeAChE; 0.05 U/mL for hAChE) or eqBuChE (0.12 U/mL) were incubated with 10 μL of different concentrations of test compounds at 37 °C for 6 min.

[4] = molecular target: T2, eqBuChE (Equus caballus, UniProt P81908); assay: In vitro inhibition of eqBuChE (Ellman method); type: biochemical, equine; settings: for inhibition at 10 µM: read-out: eqBuChE Inhibition (%)
T2 construct: eqBuChE (from equine serum); purchased Sigma-Aldrich (St. Louis, MO, USA); host or cells: equine serum
T2 sequence (P81908 whole entry): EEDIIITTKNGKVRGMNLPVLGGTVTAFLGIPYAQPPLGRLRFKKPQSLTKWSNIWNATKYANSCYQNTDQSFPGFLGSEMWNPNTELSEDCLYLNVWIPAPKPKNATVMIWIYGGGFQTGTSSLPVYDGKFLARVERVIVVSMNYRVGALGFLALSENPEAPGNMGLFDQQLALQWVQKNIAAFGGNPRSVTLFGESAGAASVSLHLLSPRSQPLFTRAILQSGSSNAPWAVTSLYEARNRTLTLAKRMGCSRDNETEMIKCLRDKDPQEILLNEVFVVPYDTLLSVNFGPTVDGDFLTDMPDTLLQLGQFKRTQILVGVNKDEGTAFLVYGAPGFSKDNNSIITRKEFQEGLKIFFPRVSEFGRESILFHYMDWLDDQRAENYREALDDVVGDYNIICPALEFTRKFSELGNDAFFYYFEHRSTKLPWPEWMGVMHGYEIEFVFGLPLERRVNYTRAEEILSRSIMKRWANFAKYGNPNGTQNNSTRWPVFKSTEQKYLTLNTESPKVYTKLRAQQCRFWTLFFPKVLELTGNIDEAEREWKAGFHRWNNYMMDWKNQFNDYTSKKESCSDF
Description: as §2

[5] = means ± SD of three experiments

Structure (SMILES) | Papp at 18 h, 25 μg/mL [1] [×10⁻⁶ cm/s] | Prediction of penetration into CNS [2] | inhibition at 10 µM [3, 5] [%] | inhibition at 10 µM [4] [%] | IC50 [3] [µM] | IC50 [4] [µM] | eeAChE Inhibition (%) ([3]; inhibitor at 10 μM, means ± SD of three experiments, 10 µM)
O=c1ccc2ccc(OCCSC(=S)N3CCCCC3)cc2[nH]1 [4a, 2-((2-oxo-1,2-dihydroquinolin-7-yl)oxy)ethyl piperidine-1-carbodithioate] | 8.57 ± 1.23 | CNS+ (CNS + is predicted as high BBB permeation with Pe (×10^6 cm/s) > 3.33) | 45.3 ± 0.35 | 16.7 ± 2.36 |  |  | 
O=c1ccc2ccc(OCCCSC(=S)N3CCCCC3)cc2[nH]1 [4b, 3-((2-oxo-1,2-dihydroquinolin-7-yl)oxy)propyl piperidine-1-carbodithioate] | 8.78 ± 1.11 | CNS+ (CNS + is predicted as high BBB permeation with Pe (×10^6 cm/s) > 3.33) |  | 16.6 ± 4.01 | 3.96 ± 0.71 |  | 
CC(C)C1CCN(C(=S)SCCCCOc2ccc3ccc(=O)[nH]c3c2)CC1 [4g, 4-((2-oxo-1,2-dihydroquinolin-7-yl)oxy)butyl 4-isopropylpiperidine-1-carbodithi-oate] | 7.14 ± 1.97 | CNS+ (CNS + is predicted as high BBB permeation with Pe (×10^6 cm/s) > 3.33) |  | 31.4 ± 3.15 | 9.61 ± 1.12 |  | 
O=c1ccc2ccc(OCCCCSC(=S)N3CCC(N4CCCCC4)CC3)cc2[nH]1 [4h, 4-((2-oxo-1,2-dihydroquinolin-7-yl)oxy)butyl [1,4′-bipiperidine]-1′-carbodithio-ate] | 6.42 ± 1.02 | CNS+ (CNS + is predicted as high BBB permeation with Pe (×10^6 cm/s) > 3.33) |  |  | 3.8 ± 0.35 | 2 ± 0.23 | 
O=c1ccc2ccc(OCCCCSC(=S)N3CCC(O)CC3)cc2[nH]1 [4i, 4-((2-oxo-1,2-dihydroquinolin-7-yl)oxy)butyl 4-hydroxypiperidine-1-carbodithio-ate] | 2.83 ± 0.65 | CNS± (CNS ± is uncertain for BBB permeation with 1.51 < Pe (×10^6 cm/s) < 3.33) | 20.2 ± 3.27 | 15.8 ± 2.45 |  |  | 
O=c1ccc2ccc(OCCCCSC(=S)N3CCC(CO)CC3)cc2[nH]1 [4j, 4-((2-oxo-1,2-dihydroquinolin-7-yl)oxy)butyl 4-(hydroxymethyl)piperidine-1-ca-rbodithioate] | 3.25 ± 0.82 | CNS± (CNS ± is uncertain for BBB permeation with 1.51 < Pe (×10^6 cm/s) < 3.33) | 14.5 ± 2.44 | 23.9 ± 2.03 |  |  | 
CN1CCN(C(=S)SCCCCOc2ccc3ccc(=O)[nH]c3c2)CC1 [4k, 4-((2-oxo-1,2-dihydroquinolin-7-yl)oxy)butyl 4-methylpiperazine-1-car-bodithioate] | 4.54 ± 0.84 | CNS+ (CNS + is predicted as high BBB permeation with Pe (×10^6 cm/s) > 3.33) | 23.1 ± 5.54 | 28.6 ± 3.44 |  |  | 
O=c1ccc2ccc(OCCCCSC(=S)N3CCOCC3)cc2[nH]1 [4l, 4-((2-oxo-1,2-dihydroquinolin-7-yl)oxy)butyl morpholine-4-carbodithioate] | 7.35 ± 1.05 | CNS+ (CNS + is predicted as high BBB permeation with Pe (×10^6 cm/s) > 3.33) | 12.3 ± 1.76 | 30.5 ± 4.11 |  |  | 
O=c1ccc2ccc(OCCCCSC(=S)N3CCCC3)cc2[nH]1 [4m, 4-((2-oxo-1,2-dihydroquinolin-7-yl)oxy)butyl pyrrolidine-1-carbodithioate] | 10 ± 2.63 | CNS+ (CNS + is predicted as high BBB permeation with Pe (×10^6 cm/s) > 3.33) | < 50 | 7.63 ± 0.92 |  |  | 31.43 ± 1.65
CC(=O)[C@H]1CC[C@H]2[C@@H]3CCC4=CC(=O)CC[C@]4(C)[C@H]3CC[C@]12C [Progesterone, reference compound] | 10.4 ± 1.9 |  |  |  |  |  | 
